Results from patent publication US20110253135A1, “METAL COORDINATION COMPLEXES OF VOLATILE DRUGS” (ALEXZA PHARMACEUTICALS, INC., priority 2008, published 2011).
Read-outs that look alike come from different tables or passages of the source.

How the values were obtained:
[1] = 25° C.; cited from earlier work
[2] = Drug aerosol from percussively ignited heat package: purity and recovered yield by HPLC; format: physicochemical

## CN1CCCC1c1cccnc1 (stereo not shown) [Nicotine, nicotine]
[1]
  vapor pressure: 0.0425 mmHg

## Cc1nnc2n1-c1ccc(Cl)cc1C(c1ccccc1)=NC2 [alprazolam]
[2]
  purity of the resultant aerosol: 96.8%
  recovered yield of aerosol: 100%

## CC(C)C(=O)OCC(=O)[C@@]12O[C@H](C3CCCCC3)O[C@@H]1C[C@H]1[C@@H]3CCC4=CC(=O)C=C[C@]4(C)[C@H]3[C@@H](O)C[C@@]12C [ciclesonide]
[2]; percussively ignited heat package, greater than 800° C., air flow 20 L/min, film 1.58 μm alprazolam, 6.33 μm pramipexole, 2.53 μm ciclesonide
  purity of the resultant aerosol: 85.6%
